Patent US7645720B2, “Extreme environment surfactant compositions comprising hydrolysis resistant organomodified disiloxane surfactants” (Momentive Performance Materials Inc., priority 2005, dated 2010)
Blank lines part the entries; values can stand above or below the molecule they belong to.

How the values were obtained:
Format in all cases: physicochemical
[1] = Hydrolytic stability by HPLC
[2] = Surface tension (Kruss surface tensiometer); conditions: 0.1 wt % in 0.005M NaCl water
Method: Surface tension was measured using a Kruss surface tensiometer, with a sand blasted platinum blade as the sensor. Solutions of the various components were prepared at 0.1 wt % in 0.005M NaCl water (Deionized), as an equilibrium aid.

[3] = Hydrolytic stability by HPLC; conditions: 0.5 wt %
Method: Hydrolytic stability was determined for representative compositions of the present invention using HPLC. Solutions of the various compositions were prepared at 0.5 wt % over a pH range from pH 4 to pH 12, and monitored by HPLC for decomposition as a function of time.
• Detector: ELSD/LTA (Evaporative Light Scattering with Low Temperature Adapter • Conditions: 30° C., 1.95 SLPM N2 • Column: Phenomenex LUNA C18 end cap, 5 micron, 75×4.6 mm • Flow Rate: 1.0 mL/min. • Inj. Volume: 10 microliters • Sample: 0.050 g/mL in methanol

[4] = Spreading of 10 μL droplet on polyacetate film; conditions: 30 seconds
Method: (§1) Spreading was determined by applying a 10 μL droplet, of surfactant solution to polyacetate film (USI, “Crystal Clear Write on Film”) and measuring the spread diameter (mm) after 30 seconds, at a relative humidity between 50 and 70% (at 22 to 25° C.). The solution was applied with an automatic pipette to provide droplets of reproducible volume. Deionized water that was further purified with a Millipore filtration system was used to prepare the surfactant solutions.

[5] = Spreading properties vs time at set pH (resistance to hydrolysis); conditions: 0.4 wt %
Method: as §1
Therefore solutions of the organomodified disiloxane surfactants of the present invention, as well as comparative surfactants were prepared at desired use levels and pH. Spreading was determined as a function of time to illustrate resistance to hydrolysis. […]
Solutions (0.4 wt %) of the surfactants were prepared at pH 4 and pH 5 and spreading properties were observed over time. The test conditions are outlined in Example 8.

Compound: C[Si](C)(CCCOCCOCCOCCOCCOCCOCCOCCOCCOCCOCCOCCO)O[Si](C)(C)C1CC2CC1C1C=CCC21 (stereo not shown) [Comparative D, reference compound]
Stability: % Siloxane Surfactant Remaining ([1]; pH 4, 48 h, 0.5 wt %): 82% | Stability: % Siloxane Surfactant Remaining ([1]; pH 4, 9 days, 0.5 wt %): 44% | Stability: % Siloxane Surfactant Remaining ([1]; pH 7, 9 days, 0.5 wt %): 99% | Stability: % Siloxane Surfactant Remaining ([1]; pH 9, 9 days, 0.5 wt %): 99% | Stability: % Siloxane Surfactant Remaining ([1]; pH 10, 48 h, 0.5 wt %): >95% | Stability: % Siloxane Surfactant Remaining ([1]; pH 10, 9 days, 0.5 wt %): 99% | Surface Tension [2]: 32.7 mN/m | Stability: % Siloxane Surfactant Remaining ([3]; pH 5, 48 h): >95% | Stability: % Siloxane Surfactant Remaining ([3]; pH 5, 9 days): 99% | Stability: % Siloxane Surfactant Remaining ([3]; pH 7, 48 h): >95% | Stability: % Siloxane Surfactant Remaining ([3]; pH 9, 48 h): >95% | Spread Diameter ([4]; 0.1%): 7 mm | Spread Diameter ([4]; 0.4%): 6 mm

Compound: CC(C)(C)CC(C)(C)c1ccc(OCCOCCOCCOCCOCCOCCOCCOCCOCCOCCO)cc1 [OPE, Octylphenolethoxylate]
Surface Tension [2]: 31.8 mN/m | Spread Diameter ([4]; 0.4%): 10 mm

Compound: CC(C)C[Si](C)(C)O[Si](C)(C)CCCOCCOCCOCCOCCOCCOCCOCCOCCOCCOCCOCCO [Product 4]
Surface Tension ([2]; listed as 4): 24.1 mN/m | Spread Diameter ([4]; 0.1%, listed as 4): 8 mm | Spread Diameter ([4]; 0.2%, listed as 4): 9 mm | Spread Diameter ([4]; 0.4%, listed as 4): 10 mm

Further lines, results first:

Surface Tension [2]: 24.1 mN/m | Spread Diameter ([4]; 0.1%): 6 mm | Spread Diameter ([4]; 0.2%): 8 mm | Spread Diameter ([4]; 0.4%): 9 mm
Compound: C[Si](C)(C)O[Si](C)(C)CCCOCCOCCOCCOCCOCCOCCOCCOCCOCCOCCOCCO [Comparative C, reference compound]

Stability: % Siloxane Surfactant Remaining ([1]; pH 4, 3 wk, Stock Solution 2.5 wt %): 79% | Stability: % Siloxane Surfactant Remaining ([1]; pH 4, 6 wk, Stock Solution 2.5 wt %): 56% | Stability: % Siloxane Surfactant Remaining ([1]; pH 4, 11 wk, Stock Solution 2.5 wt %): 10% | Stability: % Siloxane Surfactant Remaining ([1]; pH 4, 96 h, Stock Solution 2.5 wt %): 100% | Stability: % Siloxane Surfactant Remaining ([1]; pH 5, 3 wk, Stock Solution 2.5 wt %): 100% | Stability: % Siloxane Surfactant Remaining ([1]; pH 5, 6 wk, Stock Solution 2.5 wt %): 100% | Stability: % Siloxane Surfactant Remaining ([1]; pH 5, 11 wk, Stock Solution 2.5 wt %): 100% | Stability: % Siloxane Surfactant Remaining ([1]; pH 5, 96 h, Stock Solution 2.5 wt %): 100% | Stability: % Siloxane Surfactant Remaining ([1]; pH 7, 3 wk, Stock Solution 2.5 wt %): 100% | Stability: % Siloxane Surfactant Remaining ([1]; pH 7, 6 wk, Stock Solution 2.5 wt %): 100% | Stability: % Siloxane Surfactant Remaining ([1]; pH 7, 11 wk, Stock Solution 2.5 wt %): 100% | Stability: % Siloxane Surfactant Remaining ([1]; pH 7, 96 h, Stock Solution 2.5 wt %): 100% | Stability: % Siloxane Surfactant Remaining ([1]; pH 9, 3 wk, Stock Solution 2.5 wt %): 100% | Stability: % Siloxane Surfactant Remaining ([1]; pH 9, 6 wk, Stock Solution 2.5 wt %): 100% | Stability: % Siloxane Surfactant Remaining ([1]; pH 9, 11 wk, Stock Solution 2.5 wt %): 100% | Stability: % Siloxane Surfactant Remaining ([1]; pH 9, 96 h, Stock Solution 2.5 wt %): 100% | Stability: % Siloxane Surfactant Remaining ([1]; pH 10, 3 wk, Stock Solution 2.5 wt %): 100% | Stability: % Siloxane Surfactant Remaining ([1]; pH 10, 6 wk, Stock Solution 2.5 wt %): 100% | Stability: % Siloxane Surfactant Remaining ([1]; pH 10, 11 wk, Stock Solution 2.5 wt %): 100% | Stability: % Siloxane Surfactant Remaining ([1]; pH 10, 96 h, Stock Solution 2.5 wt %): 100% | Spreading Diameter ([5]; pH 4, 0 h): 16 mm | Spreading Diameter ([5]; pH 4, 1 mo): 10 mm | Spreading Diameter ([5]; pH 4, 1 wk): 8 mm | Spreading Diameter ([5]; pH 4, 2 wk): 8 mm | Spreading Diameter ([5]; pH 4, 3 wk): 12 mm | Spreading Diameter ([5]; pH 4, 1 h): 23 mm | Spreading Diameter ([5]; pH 4, 4 h): 23 mm | Spreading Diameter ([5]; pH 4, 24 h): 44 mm | Spreading Diameter ([5]; pH 4, 48 h): 38 mm | Spreading Diameter ([5]; pH 4, 72 h): 28 mm | Spreading Diameter ([5]; pH 5, 0 h): 26 mm | Spreading Diameter ([5]; pH 5, 1 mo): 42 mm | Spreading Diameter ([5]; pH 5, 1 wk): 29 mm | Spreading Diameter ([5]; pH 5, 2 wk): 33 mm | Spreading Diameter ([5]; pH 5, 3 wk): 33 mm | Spreading Diameter ([5]; pH 5, 1 h): 23 mm | Spreading Diameter ([5]; pH 5, 24 h): 24 mm | Spreading Diameter ([5]; pH 5, 48 h): 32 mm | Spreading Diameter ([5]; pH 5, 72 h): 35 mm | Surface Tension [2]: 24.5 mN/m | Spread Diameter ([4]; 0.1%): 20 mm | Spread Diameter ([4]; 0.2%): 21 mm | Spread Diameter ([4]; 0.4%): 32 mm
Compound: C[Si](C)(C)CC[Si](C)(C)O[Si](C)(C)CCCOCCOCCOCCOCCOCCOCCOCCOCCOCCOCCOCCO [Product 11]

Surface Tension ([2]; listed as 7): 23.9 mN/m | Spread Diameter ([4]; 0.1%, listed as 7): 14 mm | Spread Diameter ([4]; 0.2%, listed as 7): 15 mm | Spread Diameter ([4]; 0.4%, listed as 7): 25 mm
Compound: CC(C)C[Si](C)(C)O[Si](C)(C)CCCOCCOCCOCCOCCOCCOCCOCCOCCOCCOCCOCCO [Product 7]
